Legend:
barnyardgrass [1] = assay: Test A preemergence; type: in vivo, Echinochloa crus-galli; settings: preemergence
Summary of the method: (§1)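 Visual injury rating, 0–100 (0 no effect, 100 complete control), vs untreated controls ~10 days after treatment in greenhouse. Pre: directed soil spray on seeded loam/sand. Post: 2–10 cm plants, 1–2 leaf stage. Formulation: non-phytotoxic solvent mix + surfactant.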

corn [2] = assay: Test A preemergence; type: in vivo, Zea mays; settings: preemergence
Summary of the method: as §1

foxtail, giant [3] = assay: Test A preemergence; type: in vivo, Setaria faberii; settings: preemergence
Summary of the method: as §1

ducksalad = assay: Test B flood; type: in vivo, Heteranthera limosa; settings: 250 g ai/ha, visual rating on 0 to 100 scale (0 no effect, 100 complete control), 13 to 15 days
Summary of the method: (§2)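 2-leaf plants; pots flooded 3 cm over soil; compound added to paddy water, depth kept constant. Greenhouse 13–15 d. Visual rating vs controls, 0–100 scale (100 = complete control); dash = no result.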

crabgrass, large [4] = assay: Test A preemergence; type: in vivo, Digitaria sanguinalis; settings: preemergence
Summary of the method: as §1

pigweed [5] = assay: Test A postemergence; type: in vivo, Amaranthus retroflexus
Summary of the method: as §1

velvetleaf [6] = assay: Test A postemergence; type: in vivo, Abutilon theophrasti
Summary of the method: as §1

pigweed [7] = assay: Test A preemergence; type: in vivo, Amaranthus retroflexus; settings: preemergence
Summary of the method: as §1

rice = assay: Test B flood; type: in vivo, Oryza sativa; settings: 250 g ai/ha, visual rating on 0 to 100 scale (0 no effect, 100 complete control), 13 to 15 days
Summary of the method: as §2

barnyardgrass [8] = assay: Test A postemergence; type: in vivo, Echinochloa crus-galli
Summary of the method: as §1

morningglory [9] = assay: Test A preemergence; type: in vivo, Ipomoea spp.; settings: preemergence
Summary of the method: as §1

velvetleaf [10] = assay: Test A preemergence; type: in vivo, Abutilon theophrasti; settings: preemergence
Summary of the method: as §1

crabgrass, large [11] = assay: Test A postemergence; type: in vivo, Digitaria sanguinalis
Summary of the method: as §1

barnyardgrass [12] = assay: Test B flood; type: in vivo, Echinochloa crus-galli; settings: 250 g ai/ha, visual rating on 0 to 100 scale (0 no effect, 100 complete control), 13 to 15 days
Summary of the method: as §2

sedge, umbrella = assay: Test B flood; type: in vivo, Cyperus difformis; settings: 250 g ai/ha, visual rating on 0 to 100 scale (0 no effect, 100 complete control), 13 to 15 days
Summary of the method: as §2

foxtail, giant [13] = assay: Test A postemergence; type: in vivo, Setaria faberii
Summary of the method: as §1

wheat [14] = assay: Test A postemergence; type: in vivo, Triticum aestivum
Summary of the method: as §1

wheat [15] = assay: Test A preemergence; type: in vivo, Triticum aestivum; settings: preemergence
Summary of the method: as §1

morningglory [16] = assay: Test A postemergence; type: in vivo, Ipomoea spp.
Summary of the method: as §1

corn [17] = assay: Test A postemergence; type: in vivo, Zea mays
Summary of the method: as §1

[18] = 125 g ai/ha, visual injury, 0 to 100 scale, approx. 10 days
[19] = 500 g ai/ha, visual injury after approx. 10 days, 0 to 100 scale (0 no effect, 100 complete control)
[20] = 125 g ai/ha, visual injury approx. 10 days after treatment
[21] = Postemergence, 500 g ai/ha, 0 to 100 scale (0 no effect, 100 complete control)
[22] = postemergence, 125 g ai/ha, about 10 days, visual rating on 0 to 100 scale (0 no effect, 100 complete control)
[23] = Postemergence, 500 g ai/ha, visual rating after approx. 10 days, 0 to 100 scale (0 no effect, 100 complete control)

SMILES | Barnyardgrass plant response rating (barnyardgrass [1]; [18]) | Barnyardgrass plant response rating (barnyardgrass [1]; [19]) | Corn plant response rating (corn [2]; [19]) | Foxtail, Giant plant response rating (foxtail, giant [3]; [19]) | Plant response rating, Ducksalad (ducksalad) | Crabgrass, Large plant response rating (crabgrass, large [4]; [19]) | Pigweed plant response rating (pigweed [5]; [22]) | Velvetleaf plant response rating (velvetleaf [6]; [22]) | Pigweed plant response rating (pigweed [7]; [19]) | Plant response rating, Rice (rice) | Morningglory plant response rating (morningglory [9]; [19]) | Velvetleaf plant response rating (velvetleaf [10]; [19]) | Crabgrass, Large plant response rating (crabgrass, large [11]; [22]) | Plant response rating, Barnyardgrass (barnyardgrass [12]) | Plant response rating, Sedge, Umbrella (sedge, umbrella) | Foxtail, Giant plant response rating (foxtail, giant [13]; [22]) | Wheat plant response rating (wheat [14]; [22]) | Wheat plant response rating (wheat [15]; [19]) | Morningglory plant response rating (morningglory [16]; [22]) | Corn plant response rating (corn [17]; [22]) | other results
CCCCc1cc(C(=O)NOCC)nn1Cc1ccnc(C(F)(F)F)c1 [Compound 152] | 0 | 60 | 0 | 60 | 0 | 80 | 60 | 20 | 100 | 0 | 20 | 20 | 10 | 0 | 0 | 10 | 0 | 0 | 40 | 10 | Corn plant response rating (0 to 100 scale) (corn [2]; [20]): 0; Foxtail, Giant plant response rating (0 to 100 scale) (foxtail, giant [3]; [20]): 10; Crabgrass, Large plant response rating (0 to 100 scale) (crabgrass, large [4]; [20]): 40; Pigweed plant response rating (pigweed [5]; [21]): 80; Velvetleaf plant response rating (velvetleaf [6]; [21]): 60; Pigweed plant response rating (0 to 100 scale) (pigweed [7]; [20]): 100; Barnyardgrass plant response rating (barnyardgrass [8]; [21]): 50; Barnyardgrass plant response rating (barnyardgrass [8]; [22]): 10; Morningglory plant response rating (0 to 100 scale) (morningglory [9]; [20]): 0; Velvetleaf plant response rating (0 to 100 scale) (velvetleaf [10]; [20]): 0; Crabgrass, Large plant response rating (crabgrass, large [11]; [21]): 60; Foxtail, Giant plant response rating (foxtail, giant [13]; [21]): 40; Wheat plant response rating (wheat [14]; [21]): 0; Wheat plant response rating (0 to 100 scale) (wheat [15]; [20]): 0; Morningglory plant response rating (morningglory [16]; [21]): 60; Corn plant response rating (corn [17]; [21]): 30
CCc1cc(C(=O)Nc2ccc(F)cc2)nn1Oc1ccnc(C(F)(F)F)c1 [Compound 89] | 0 | 0 | 0 | 10 | 0 | 10 | 0 | 0 | 0 | 0 | 0 | 0 | 0 | 0 | 0 | 0 | 0 | 0 | 0 | 0 | Corn plant response rating (corn [2]; [18]): 0; Foxtail, Giant plant response rating (foxtail, giant [3]; [18]): 0; Crabgrass, Large plant response rating (crabgrass, large [4]; [18]): 0; Pigweed plant response rating (pigweed [5]; [23]): 0; Velvetleaf plant response rating (velvetleaf [6]; [23]): 0; Pigweed plant response rating (pigweed [7]; [18]): 0; Barnyardgrass plant response rating (barnyardgrass [8]; Postemergence, 125 g ai/ha, 0 to 100 scale, 0 no effect, 100 complete control): 0; Barnyardgrass plant response rating (barnyardgrass [8]; [23]): 0; Morningglory plant response rating (morningglory [9]; [18]): 0; Velvetleaf plant response rating (velvetleaf [10]; [18]): 0; Crabgrass, Large plant response rating (crabgrass, large [11]; [23]): 0; Foxtail, Giant plant response rating (foxtail, giant [13]; [23]): 0; Wheat plant response rating (wheat [14]; [23]): 0; Wheat plant response rating (wheat [15]; [18]): 0; Morningglory plant response rating (morningglory [16]; [23]): 0; Corn plant response rating (corn [17]; [23]): 20
CCCNC(=O)c1cc(CC)n(Cc2cc(C(F)(F)F)nn2CC)n1 [Compound 117] | 30 | 80 | 10 | 100 | 50 | 100 | 50 | 40 | 100 | 20 | 100 | 0 | 20 | 0 | 75 | 20 | 0 | 0 | 60 | 20 | Corn plant response rating (corn [2]; [18]): 0; Foxtail, Giant plant response rating (foxtail, giant [3]; [18]): 70; Crabgrass, Large plant response rating (crabgrass, large [4]; [18]): 90; Pigweed plant response rating (pigweed [5]; [23]): 80; Velvetleaf plant response rating (velvetleaf [6]; [23]): 80; Pigweed plant response rating (pigweed [7]; [18]): 90; Barnyardgrass plant response rating (barnyardgrass [8]; [23]): 80; Barnyardgrass plant response rating (barnyardgrass [8]; [22]): 40; Morningglory plant response rating (morningglory [9]; [18]): 30; Velvetleaf plant response rating (velvetleaf [10]; [18]): 0; Crabgrass, Large plant response rating (crabgrass, large [11]; [23]): 80; Foxtail, Giant plant response rating (foxtail, giant [13]; [23]): 90; Wheat plant response rating (wheat [14]; [23]): 0; Wheat plant response rating (wheat [15]; [18]): 0; Morningglory plant response rating (morningglory [16]; [23]): 90; Corn plant response rating (corn [17]; [23]): 50

Source: US20150105252A1, “SUBSTITUTED PYRAZOLES AS HERBICIDES” (E I DU PONT DE NEMOURS AND COMPANY, priority 2013, published 2015)
